Data as given in patent US9457005B2, “Compositions and methods for increasing insulin sensitivity” (Orexigen Therapeutics, Inc., priority 2005, dated 2016).
Several values for one entry are separate records, joined by “and”; a condition that tells them apart may be missing. Identical values can stand only once.

Columns and labels:
blood glucose levels [1] = test: Insulin tolerance test, naltrexone and bupropion, glucose AUC (Example 8); format: in vivo, mice; settings: naltrexone 3 mg/kg, bupropion 50 mg/kg
Procedure: (§1) A baseline blood glucose determination was made two hours post-injection. Mice were then given a standard I.P. injection of insulin. Blood glucose levels were then followed for two hours (at 15 min, 30 min, 1 h and 2 h). […] Glucose levels are in mg/dl.
Total areas under the curve (AUC) were calculated based on glucose levels at each time point for each mouse. AUC is a summation of glucose levels observed at each time point.

blood glucose levels [2] = test: Insulin tolerance test, naltrexone and fluoxetine (Example 7); format: in vivo, Mice; settings: for Blood glucose, 15 min / Blood glucose, 30 min / Blood glucose, 1 h / Blood glucose, 2 h / Blood glucose, Baseline: individual mice (n=3), I.P. fluoxetine 8.5 mg/kg and/or naltrexone 2.5 mg/kg; for Blood glucose, 15 min: 15 min after I.P. insulin; for Blood glucose, 30 min: 30 min after I.P. insulin; for Blood glucose, 1 h: 1 h after I.P. insulin; for Blood glucose, 2 h: 2 h after I.P. insulin; for Blood glucose, Baseline: baseline two hours post-injection, before I.P. insulin; for Effect on insulin tolerance / insulin resistance (in words): mice, fluoxetine 8.5 mg/kg, naltrexone 2.5 mg/kg I.P., compared with vehicle or either compound alone
Procedure: as §1

blood glucose levels [3] = test: Blood glucose after olanzapine minipump and zonisamide injections (Example 9); format: in vivo, Female Sprague-Dawley rats; settings: rats; olanzapine 1.75 mg/day by minipump, zonisamide 26 mg/kg twice daily; 13 days after olanzapine implant, 6 days after zonisamide injections began; vehicle 92.2
Procedure: Female Sprague-Dawley rats, weighing about 235 grams at the start of the experiment were used. […] The rats were subsequently returned to their home cages after recovery. The minipumps delivered 5 μL per hour for 14 days. […] The animals were housed individually and supplied with standard laboratory chow. Food consumed and animal weights were recorded every day. […] Rats were allowed to recover after pump implantation, and then received twice daily injections of zonisamide 26 mg/kg. […] The results are shown below (Table 5).

SMILES	Blood glucose, 15 min (blood glucose levels [2])	Blood glucose, 30 min (blood glucose levels [2])	Blood glucose, 1 h (blood glucose levels [2])	Blood glucose, 2 h (blood glucose levels [2])	Blood glucose, Baseline (blood glucose levels [2])	Effect on insulin tolerance / insulin resistance (in words) (blood glucose levels [2])	Blood Glucose, Average (blood glucose levels [3]) [mg/dL]	other results
CC(NC(C)(C)C)C(=O)c1cccc(Cl)c1 (centres unmarked) [Bupropion, bupropion]	–	–	–	–	–	–	–	Total area under the curve (AUC) of glucose levels, each mouse (blood glucose levels [1]; individual mice (n=12), summation of glucose levels at each time point): 13613 and 12038 and 9083 and 14003 and 9668 and 8003 and 8715 (2×); Decrease in AUC versus vehicle (blood glucose levels [1]): 4.3%; Mean AUC as % of vehicle AUC (blood glucose levels [1]; vehicle mean=11136.2): 95.7%
O=C1CC[C@@]2(O)[C@H]3Cc4ccc(O)c5c4[C@@]2(CCN3CC2CC2)[C@H]1O5 [naltrexone]	68 mg/dL and 62 mg/dL and 65 mg/dL	84 mg/dL and 82 mg/dL and 81 mg/dL	80 mg/dL and 127 mg/dL	181 mg/dL and 175 mg/dL and 186 mg/dL	137 mg/dL and 111 mg/dL and 134 mg/dL	neither fluoxetine nor naltrexone alone had an effect on insulin tolerance	–	–
NS(=O)(=O)Cc1noc2ccccc12 [Zonisamide, zonisamide]	–	–	–	–	–	–	117.6	–
Cc1cc2c(s1)Nc1ccccc1N=C2N1CCN(C)CC1 [Olanzapine, olanzapine]	–	–	–	–	–	–	120.4	–
CNCCC(Oc1ccc(C(F)(F)F)cc1)c1ccccc1 (centres unmarked) [fluoxetine]	63 mg/dL and 82 mg/dL and 84 mg/dL	93 mg/dL and 90 mg/dL and 80 mg/dL	118 mg/dL and 138 mg/dL and 89 mg/dL	228 mg/dL and 169 mg/dL and 189 mg/dL	135 mg/dL and 161 mg/dL and 145 mg/dL	neither fluoxetine nor naltrexone alone had an effect on insulin tolerance	–	–
